Laboratory results reported in ChEMBL document CHEMBL4483862, “Open-source discovery of chemical leads for next-generation chemoprotective antimalarials” (2018).

System: Plasmodium berghei
Test: Luciferase/luciferin-expressing antifolate-resistant parasites were used to infect a culture of HepG2 cells that were pre-incubated with compounds. Infected hepatocytes emit light due to the luciferase reaction. Assay results are presented as the percent inhibition of light emission compared to control. […]
Type: functional
Conditions: sporozoite; for IC90: read-out: LUCIFERASE INFECTION ASSAY - IC90
[1] = read-out: LUCIFERASE INFECTION ASSAY - IC50

Compound: CCOC(=O)c1cc(-c2csc(Nc3c(C)cc(C)cc3C)n2)on1
- IC50 (PBLUC_HILL_SLOPE 14.6, PBLUC_R_SQUARED 0.157, read-out: LUCIFERASE INFECTION ASSAY - IC50): 9.07 µM
- IC90: > 9.23 µM

Compound: Cn1c(N)c(C(=O)CSc2nc(-c3ccccc3)c(-c3ccccc3)o2)c(=O)n(C)c1=O
- IC50 (HEPG2TOX_HILL_SLOPE 1.35, HEPG2TOX_R_SQUARED 0.367, PBLUC_HILL_SLOPE 15.8, PBLUC_R_SQUARED 0.143, read-out: LUCIFERASE INFECTION ASSAY - IC50): 9 µM
- IC90: > 10 µM

Compound: COc1ccc(C2C3CCc4ccccc4C3=NN2CCO)cc1 (configuration not stated)
- IC50 (HEPG2TOX_HILL_SLOPE 8.7, HEPG2TOX_R_SQUARED 0.737, PBLUC_HILL_SLOPE 7.39, PBLUC_R_SQUARED 0.683, read-out: LUCIFERASE INFECTION ASSAY - IC50): > 10.2 µM
- IC90: > 10.2 µM

Compound: Cc1c(S(=O)(=O)c2ccc(Cl)cc2)csc1C(=O)NCc1ccco1
- IC50 (PBLUC_HILL_SLOPE 1.58, PBLUC_R_SQUARED 0.729, read-out: LUCIFERASE INFECTION ASSAY - IC50): 2.88 µM
- IC90: > 8.34 µM

Compound: CC(C)(C)c1ccc(NC(=O)c2cc(-c3ccccc3)ncn2)cc1
- IC50 (PBLUC_HILL_SLOPE 1.26, PBLUC_R_SQUARED 0.612, read-out: LUCIFERASE INFECTION ASSAY - IC50): 2.29 µM
- IC90: > 9.96 µM

Compound: O=C(OC1(C(F)(F)F)C(=O)Nc2c1ccc1ccccc21)c1cccs1 (configuration not stated)
- IC50 (FFLUC_HILL_SLOPE 2.8, FFLUC_R_SQUARED 0.511, PBLUC_HILL_SLOPE 11.1, PBLUC_R_SQUARED 0.378, read-out: LUCIFERASE INFECTION ASSAY - IC50): 9.81 µM
- IC90: > 10 µM

Compound: CCCCCCCCCCCc1nnc(SCc2ccccc2)n1-c1ccccc1C(F)(F)F
- IC50 (FFLUC_HILL_SLOPE 1.21, FFLUC_R_SQUARED 0.637, read-out: LUCIFERASE INFECTION ASSAY - IC50): > 6.74 µM
- IC90: > 6.74 µM

Compound: COCCNc1ccc([N+](=O)[O-])cc1C(=O)Nc1nc2c(C)cccc2s1
- IC50 (HEPG2TOX_HILL_SLOPE 9.09, HEPG2TOX_R_SQUARED 0.757, PBLUC_HILL_SLOPE 15.6, PBLUC_R_SQUARED 0.06, read-out: LUCIFERASE INFECTION ASSAY - IC50): 9.61 µM
- IC90: > 10 µM

Compound: CN(C)c1c(F)cc(C(=O)Nc2cc(C(F)(F)F)cc(C(F)(F)F)c2)cc1F
- IC50 (HEPG2TOX_HILL_SLOPE 10.3, HEPG2TOX_R_SQUARED 0.772, PBLUC_HILL_SLOPE 1.36, PBLUC_R_SQUARED 0.505, read-out: LUCIFERASE INFECTION ASSAY - IC50): > 8 µM
- IC90: > 8 µM

Compound: CC(Sc1nc(Nc2ccccc2)c2ccccc2n1)C(=O)Nc1sccc1C#N (configuration not stated)
- IC50 (HEPG2TOX_HILL_SLOPE 2.3, HEPG2TOX_R_SQUARED 0.812, read-out: LUCIFERASE INFECTION ASSAY - IC50): > 10 µM
- IC90: > 10 µM

Compound: O=C(c1cnc(Nc2cccc(Oc3ccccc3)c2)[nH]1)c1ccccc1O
- IC50 (HEPG2TOX_HILL_SLOPE 1.38, HEPG2TOX_R_SQUARED 0.947, PBLUC_HILL_SLOPE 15.8, PBLUC_R_SQUARED 0.824, read-out: LUCIFERASE INFECTION ASSAY - IC50): 0.938 µM
- IC90: 1.08 µM

Compound: O=C(OCc1cn2cc(Cl)ccc2n1)c1cc([N+](=O)[O-])ccc1N1CCCC1
- IC50 (HEPG2TOX_HILL_SLOPE 1.77, HEPG2TOX_R_SQUARED 0.925, PBLUC_HILL_SLOPE 9.51, PBLUC_R_SQUARED 0.622, read-out: LUCIFERASE INFECTION ASSAY - IC50): 0.976 µM
- IC90: 1.23 µM

Compound: O=S(=O)(CCN1CCC(C(c2ccccc2)c2ccccc2)CC1)c1ccc(F)cc1
- IC50 (PBLUC_HILL_SLOPE 2.04, PBLUC_R_SQUARED 0.498, read-out: LUCIFERASE INFECTION ASSAY - IC50): 2.02 µM
- IC90: 5.93 µM

Compound: CC1CCN(CC(=O)Nc2cccc(C(=O)Nc3cccc(C(F)(F)F)c3)c2)CC1
- IC50 [1]: > 10 µM
- IC90: > 10 µM

Compound: COCCNc1nc(Nc2ccc(C)cc2C)c2sccc2n1
- IC50 (HEPG2TOX_HILL_SLOPE 2.54, HEPG2TOX_R_SQUARED 0.987, PBLUC_HILL_SLOPE 3.36, PBLUC_R_SQUARED 0.0445, read-out: LUCIFERASE INFECTION ASSAY - IC50): > 10 µM
- IC90: > 10 µM

Compound: CCCN(CC(=O)Nc1scc(-c2ccccc2)c1C(=O)OCC)Cc1nnc(-c2ccco2)o1
- IC50 [1]: > 10 µM
- IC90: > 10 µM

Compound: OC1CCC(Nc2ccc3ncc(Br)n3n2)CC1 (configuration not stated)
- IC50 (HEPG2TOX_HILL_SLOPE 1.63, HEPG2TOX_R_SQUARED 0.931, read-out: LUCIFERASE INFECTION ASSAY - IC50): > 10.6 µM
- IC90: > 10.6 µM

Compound: CSc1nnc(Sc2ncc([N+](=O)[O-])s2)s1
- IC50 (FFLUC_HILL_SLOPE 11.6, FFLUC_R_SQUARED 0.224, HEPG2TOX_HILL_SLOPE 8.93, HEPG2TOX_R_SQUARED 0.0924, PBLUC_HILL_SLOPE 12.6, PBLUC_R_SQUARED 0.322, read-out: LUCIFERASE INFECTION ASSAY - IC50): 10 µM
- IC90: > 11.3 µM

Compound: O=c1[nH]c2ccc(-c3csc(Nc4ccc(Cl)cc4)n3)cc2o1
- IC50 (HEPG2TOX_HILL_SLOPE 16.7, HEPG2TOX_R_SQUARED 0.933, PBLUC_HILL_SLOPE 4.05, PBLUC_R_SQUARED 0.109, read-out: LUCIFERASE INFECTION ASSAY - IC50): 7.81 µM
- IC90: > 10 µM

Compound: C=CCc1ccc(O)c(-c2ccc(O)c(CC=C)c2)c1 [HONOKIOL]
- IC50 (FFLUC_HILL_SLOPE 14.9, FFLUC_R_SQUARED 0.388, read-out: LUCIFERASE INFECTION ASSAY - IC50): > 12.4 µM
- IC90: > 12.4 µM

Compound: Cc1cccc(OCCNC(=O)c2cc(S(=O)(=O)N3CCOCC3)ccc2N2CCOCC2)c1
- IC50 (HEPG2TOX_HILL_SLOPE 6.77, HEPG2TOX_R_SQUARED 0.742, read-out: LUCIFERASE INFECTION ASSAY - IC50): > 10 µM
- IC90: > 10 µM

Compound: CCCn1nc(C(=O)N2CC(C)CC(C)C2)ccc1=O (configuration not stated)
- IC50 [1]: > 10 µM
- IC90: > 10 µM

Compound: CC(C)C(C)NC(=O)CSc1nnc(CC2CCCC2)[nH]1 (configuration not stated)
- IC50 [1]: > 10 µM
- IC90: > 10 µM

Compound: CC(C)c1ccc(Nc2nccc3nc(-c4cccc(C(F)(F)F)c4)[nH]c23)cc1
- IC50 (HEPG2TOX_HILL_SLOPE 8.02, HEPG2TOX_R_SQUARED 0.493, PBLUC_HILL_SLOPE 1.32, PBLUC_R_SQUARED 0.475, read-out: LUCIFERASE INFECTION ASSAY - IC50): 4.04 µM
- IC90: > 10 µM

Compound: CC(=O)Nc1ccc(-c2cnc3ccc(-c4cccc(F)c4)nn23)cc1
- IC50 (HEPG2TOX_HILL_SLOPE 8.87, HEPG2TOX_R_SQUARED 0.791, PBLUC_HILL_SLOPE 12.1, PBLUC_R_SQUARED 0.742, read-out: LUCIFERASE INFECTION ASSAY - IC50): 2.95 µM
- IC90: 3.53 µM

Compound: C[C@H](NC(=O)[C@@H]1CSC2c3ccccc3C(=O)N21)C(=O)NC1CCCCC1 (some centres not stated)
- IC50 [1]: > 8.52 µM
- IC90: > 8.52 µM

Compound: OCc1ccc(-c2cnc3cnc(-c4ccc(CNc5ccccc5)cc4)cn23)cc1
- IC50 [1]: 6.07 µM
- IC90: > 8.12 µM

Compound: Cc1cc(SCC(=O)NC(C)C2CC3CCC2C3)n2c(nc3ccccc32)c1C#N (configuration not stated)
- IC50 (HEPG2TOX_HILL_SLOPE 6.37, HEPG2TOX_R_SQUARED 0.94, PBLUC_HILL_SLOPE 33.9, PBLUC_R_SQUARED 0.41, read-out: LUCIFERASE INFECTION ASSAY - IC50): 3.32 µM
- IC90: 3.54 µM

Compound: O=C(COc1ccc2c3c(c(=O)oc2c1)CCC3)Nc1nc(-c2ccccn2)cs1
- IC50 (HEPG2TOX_HILL_SLOPE 8.22, HEPG2TOX_R_SQUARED 0.725, PBLUC_HILL_SLOPE 12.7, PBLUC_R_SQUARED 0.0522, read-out: LUCIFERASE INFECTION ASSAY - IC50): 9.13 µM
- IC90: > 10 µM

Compound: CCCN(CC(=O)N1N=C(c2ccc(C)cc2)CC1c1ccco1)Cc1nnc(-c2ccco2)o1 (configuration not stated)
- IC50 [1]: > 10 µM
- IC90: > 10 µM

Compound: CCOc1cc(/C=C2\COc3ccccc3C2=O)ccc1OCC(=O)N(C)C
- IC50 [1]: > 10 µM
- IC90: > 10 µM

Compound: CCOc1ccc(NC(=O)c2ccc(NC(=O)CSc3nncs3)cc2)cc1
- IC50 [1]: > 10 µM
- IC90: > 10 µM

Compound: Cc1ccc(C(=O)Nc2cccc(CNC(C)c3ccc(F)cc3F)c2)cc1 (configuration not stated)
- IC50 [1]: > 10 µM
- IC90: > 10 µM

Compound: CCN(CC)S(=O)(=O)c1ccc(Cl)c(NC(=O)COC(=O)c2c3c(nc4ccccc24)CCC(C)C3)c1 (configuration not stated)
- IC50 (HEPG2TOX_HILL_SLOPE 20.1, HEPG2TOX_R_SQUARED 0.334, PBLUC_HILL_SLOPE 11.1, PBLUC_R_SQUARED 0.597, read-out: LUCIFERASE INFECTION ASSAY - IC50): 3.46 µM
- IC90: 4.21 µM

Compound: CCOc1cccc(-c2cn3c(-c4ccc(C(=O)N5CCN(C)CC5)cc4)cnc3cn2)c1
- IC50 (PBLUC_HILL_SLOPE 18.7, PBLUC_R_SQUARED 0.82, read-out: LUCIFERASE INFECTION ASSAY - IC50): 6.48 µM
- IC90: 7.28 µM

Compound: O=C(Nc1ccc(N2CCCC2)cn1)C1CC=CCC1 (configuration not stated)
- IC50 (FFLUC_HILL_SLOPE 1.03, FFLUC_R_SQUARED 0.671, HEPG2TOX_HILL_SLOPE 1.03, HEPG2TOX_R_SQUARED 0.932, PBLUC_HILL_SLOPE 1.27, PBLUC_R_SQUARED 0.726, read-out: LUCIFERASE INFECTION ASSAY - IC50): 0.112 µM
- IC90: 0.636 µM

Compound: CS(=O)(=O)Nc1ccc(S(=O)(=O)NC23CC4CC(CC(C4)C2)C3)cc1
- IC50 [1]: > 8.58 µM
- IC90: > 8.58 µM

Compound: O=C(NC1CCCCC1C(F)(F)F)c1csc(-c2ccccc2)n1 (configuration not stated)
- IC50 (HEPG2TOX_HILL_SLOPE 0.159, HEPG2TOX_R_SQUARED 0.617, PBLUC_HILL_SLOPE 14, PBLUC_R_SQUARED 0.734, read-out: LUCIFERASE INFECTION ASSAY - IC50): 3.35 µM
- IC90: 3.92 µM

Compound: Nc1nccnc1C(=O)Nc1nc2ccc(Oc3ccccc3)cc2s1
- IC50 [1]: > 10 µM
- IC90: > 10 µM

Compound: CC(C)Cn1c(-c2ccccc2)nc2c(c(=O)c3ccccc3n2C)c1=O
- IC50 (PBLUC_HILL_SLOPE 2.45, PBLUC_R_SQUARED 0.0531, read-out: LUCIFERASE INFECTION ASSAY - IC50): 6.49 µM
- IC90: > 9.18 µM

Compound: CC(C)c1cccc(Nc2nnc(C(O)c3ccccc3Cl)s2)c1 (configuration not stated)
- IC50 [1]: > 10 µM
- IC90: > 10 µM
